Assay results published in the NIST ThermoML archive (doi:10.1016/j.tca.2012.07.004).

Experiment: xn = mol fraction of the nth substance listed
Details: 101 kPa, Liquid; for mass density: Vibrating tube method; for viscosity: Vibrating wire viscometry; for speed of sound: ultrasonic interferometer

CC(=O)[O-].C[NH+](C)C [trimethylammonium acetate] + CN1CCCC1=O
Details | mass density [kg/m3] | speed of sound [m/s] | viscosity [mPa·s]
298.15 K, x1 = 0.0182 | 1028.63 | 1571 | 2.04
298.15 K, x1 = 0.0369 | 1030.53 | 1575 | 2.28
298.15 K, x1 = 0.0987 | 1036.87 | 1578 | 3.04
298.15 K, x1 = 0.1401 | 1039.96 | 1581 | 3.42
298.15 K, x1 = 0.2032 | 1043.65 | 1586 | 3.89
298.15 K, x1 = 0.3166 | 1047.89 | 1584 | 4.5
298.15 K, x1 = 0.3637 | 1048.9 | 1582 | 4.56
298.15 K, x1 = 0.4353 | 1049.74 | 1580 | 4.61
298.15 K, x1 = 0.5625 | 1049.92 | 1571 | 4.52
298.15 K, x1 = 0.6999 | 1049.74 | 1559 | 4.23
298.15 K, x1 = 0.8435 | 1050.4 | 1550 | 3.7
298.15 K, x1 = 0.936 | 1051.83 | 1544 | 3.27
298.15 K, x1 = 0.9675 | 1052.54 | 1543 | 3.02
298.15 K, x1 = 1 | 1053.85 | 1544 | 2.76
303.15 K, x1 = 0.0182 | 1026.1 | 1556 | 1.64
303.15 K, x1 = 0.0369 | 1027.79 | 1560 | 1.86
303.15 K, x1 = 0.0987 | 1033.52 | 1565 | 2.56
303.15 K, x1 = 0.1401 | 1036.31 | 1568 | 3
303.15 K, x1 = 0.2032 | 1039.76 | 1572 | 3.48
303.15 K, x1 = 0.3166 | 1043.59 | 1569 | 4.05
303.15 K, x1 = 0.3637 | 1044.52 | 1566 | 4.11
303.15 K, x1 = 0.4353 | 1045.32 | 1564 | 4.16
303.15 K, x1 = 0.5625 | 1045.54 | 1551 | 4.01
303.15 K, x1 = 0.6999 | 1045.69 | 1537 | 3.64
303.15 K, x1 = 0.8435 | 1046.54 | 1524 | 3.14
303.15 K, x1 = 0.936 | 1048.22 | 1517 | 2.78
303.15 K, x1 = 0.9675 | 1048.93 | 1515 | 2.52
303.15 K, x1 = 1 | 1049.87 | 1514 | 2.37
308.15 K, x1 = 0.0182 | 1021.24 | 1534 | 1.43
308.15 K, x1 = 0.0369 | 1023.08 | 1540 | 1.57
308.15 K, x1 = 0.0987 | 1028.14 | 1546 | 2.23
308.15 K, x1 = 0.1401 | 1030.79 | 1550 | 2.64
308.15 K, x1 = 0.2032 | 1034.23 | 1555 | 3.14
308.15 K, x1 = 0.3166 | 1037.97 | 1554 | 3.7
308.15 K, x1 = 0.3637 | 1039.05 | 1553 | 3.76
308.15 K, x1 = 0.4353 | 1039.98 | 1551 | 3.77
308.15 K, x1 = 0.5625 | 1040.55 | 1540 | 3.52
308.15 K, x1 = 0.6999 | 1040.85 | 1530 | 3.12
308.15 K, x1 = 0.8435 | 1042 | 1519 | 2.64
308.15 K, x1 = 0.936 | 1043.81 | 1512 | 2.34
308.15 K, x1 = 0.9675 | 1044.69 | 1511 | 2.16
308.15 K, x1 = 1 | 1045.81 | 1508 | 2.06
313.15 K, x1 = 0.0182 | 1016.53 | 1528 | 1.52
313.15 K, x1 = 0.0369 | 1017.98 | 1533 | 1.38
313.15 K, x1 = 0.0987 | 1023.07 | 1538 | 1.96
313.15 K, x1 = 0.1401 | 1025.67 | 1542 | 2.39
313.15 K, x1 = 0.2032 | 1029.09 | 1546 | 2.81
313.15 K, x1 = 0.3166 | 1032.81 | 1544 | 3.37
313.15 K, x1 = 0.3637 | 1033.73 | 1543 | 3.41
313.15 K, x1 = 0.4353 | 1034.71 | 1540 | 3.42
313.15 K, x1 = 0.5625 | 1035.21 | 1528 | 3.16
313.15 K, x1 = 0.6999 | 1035.7 | 1517 | 2.74
313.15 K, x1 = 0.8435 | 1037.36 | 1508 | 2.25
313.15 K, x1 = 0.936 | 1039.26 | 1502 | 2.04
313.15 K, x1 = 0.9675 | 1040.35 | 1496 | 1.92
313.15 K, x1 = 1 | 1041.7 | 1490 | 1.83

C[NH+](C)C.O=P([O-])(O)O [trimethylammonium dihydrogen phosphate] + CN1CCCC1=O
Details | mass density [kg/m3] | speed of sound [m/s] | viscosity [mPa·s]
298.15 K, x1 = 0.0201 | 1041.43 | 1573 | 2.89
298.15 K, x1 = 0.0391 | 1053.47 | 1586 | 6.08
298.15 K, x1 = 0.1028 | 1089.8 | 1610 | 13.47
298.15 K, x1 = 0.1462 | 1113.92 | 1626 | 18.44
298.15 K, x1 = 0.211 | 1148.18 | 1653 | 25.04
298.15 K, x1 = 0.3267 | 1196.88 | 1680 | 30.52
298.15 K, x1 = 0.3746 | 1213.72 | 1686 | 31.03
298.15 K, x1 = 0.4469 | 1236.58 | 1695 | 31.16
298.15 K, x1 = 0.5751 | 1270.11 | 1695 | 27.7
298.15 K, x1 = 0.7093 | 1297.11 | 1691 | 21.12
298.15 K, x1 = 0.852 | 1325.36 | 1673 | 12.99
298.15 K, x1 = 0.9413 | 1342.23 | 1665 | 8.68
298.15 K, x1 = 0.9719 | 1348.52 | 1665 | 7.48
298.15 K, x1 = 1 | 1353.61 | 1672 | 7.64
303.15 K, x1 = 0.0201 | 1034.74 | 1570 | 2.13
303.15 K, x1 = 0.0391 | 1045.35 | 1582 | 3.98
303.15 K, x1 = 0.1028 | 1081.42 | 1604 | 11.55
303.15 K, x1 = 0.1462 | 1104.62 | 1624 | 15.87
303.15 K, x1 = 0.211 | 1136.57 | 1644 | 21.79
303.15 K, x1 = 0.3267 | 1183.7 | 1671 | 26.64
303.15 K, x1 = 0.3746 | 1200.24 | 1679 | 27.3
303.15 K, x1 = 0.4469 | 1223.4 | 1692 | 26.98
303.15 K, x1 = 0.5751 | 1257.32 | 1692 | 24.1
303.15 K, x1 = 0.7093 | 1286.38 | 1690 | 18.07
303.15 K, x1 = 0.852 | 1317.91 | 1675 | 10.86
303.15 K, x1 = 0.9413 | 1337.6 | 1663 | 7.93
303.15 K, x1 = 0.9719 | 1344.48 | 1662 | 6.79
303.15 K, x1 = 1 | 1350.62 | 1660 | 6.46
308.15 K, x1 = 0.0201 | 1028.37 | 1550 | 1.54
308.15 K, x1 = 0.0391 | 1038.12 | 1564 | 2.3
308.15 K, x1 = 0.1028 | 1073.87 | 1587 | 8.69
308.15 K, x1 = 0.1462 | 1095.84 | 1606 | 11.98
308.15 K, x1 = 0.211 | 1126.55 | 1633 | 16.24
308.15 K, x1 = 0.3267 | 1173.1 | 1663 | 20.11
308.15 K, x1 = 0.3746 | 1189.72 | 1673 | 20.71
308.15 K, x1 = 0.4469 | 1213.08 | 1688 | 20.64
308.15 K, x1 = 0.5751 | 1248.1 | 1693 | 18.68
308.15 K, x1 = 0.7093 | 1279.47 | 1691 | 14.21
308.15 K, x1 = 0.852 | 1311.88 | 1685 | 8.83
308.15 K, x1 = 0.9413 | 1332.36 | 1675 | 7.25
308.15 K, x1 = 0.9719 | 1339.9 | 1673 | 6.6
308.15 K, x1 = 1 | 1347.59 | 1661 | 5.61
313.15 K, x1 = 0.0201 | 1023.28 | 1544 | 1.47
313.15 K, x1 = 0.0391 | 1031.97 | 1560 | 2.82
313.15 K, x1 = 0.1028 | 1065.17 | 1588 | 6.92
313.15 K, x1 = 0.1462 | 1086.37 | 1608 | 9.58
313.15 K, x1 = 0.211 | 1116.83 | 1637 | 12.74
313.15 K, x1 = 0.3267 | 1161.79 | 1672 | 16.43
313.15 K, x1 = 0.3746 | 1178.19 | 1684 | 16.55
313.15 K, x1 = 0.4469 | 1201.94 | 1702 | 16.53
313.15 K, x1 = 0.5751 | 1237.68 | 1708 | 15.2
313.15 K, x1 = 0.7093 | 1270.77 | 1704 | 11.9
313.15 K, x1 = 0.852 | 1305.61 | 1697 | 7.17
313.15 K, x1 = 0.9413 | 1327.25 | 1684 | 6.73
313.15 K, x1 = 0.9719 | 1335.1 | 1682 | 5.76
313.15 K, x1 = 1 | 1344.53 | 1664 | 5.07
